Source: PubChem BioAssay AID602160 (Broad Institute, 2011)
Inconclusive results are not listed.

Each molecule was assayed against Plasmodium falciparum Hsp90 (expressed in yeast GR reporter strain) (assay: GR-driven beta-gal reporter inhibition, PfHsp90 yeast strain – S. cerevisiae, beta-gal luminescence, dry powder samples, dose response (AID 602160)).

| AC50 [µM] | SMILES |
| --- | --- |
| 15.1 | O=S(=O)(/C=C/c1ccccc1)NC1CCCCCCC1 |
| 20.2 | Cc1ccc(OCc2n[nH]c(=S)n2C2CCCCC2)cc1 |
| 10.7 | O=S(=O)(NC1CCCCCC1)c1ccc(Br)s1 |
| 19.6 | O=C(CSCC(=O)N1CCCCC1)Nc1nc(-c2ccc(Cl)s2)cs1 |
